2 compounds from EP4755378A1, “DYRK2 INHIBITORS FOR TREATING TUMOURS WITH THE HYPERACTIVE MAPK/ERK PATHWAY” (Universidad de Córdoba, priority 2023, dated 2025) can be followed below.

What all share (format): cell-based
One assay has as its system pERK1/2-T202/T204. Briefly: Western-blot of ERK1/2 activation loop phosphorylation in HEK-293T cells. The note with it: Dabrafenib 10 µM 24 hours, EGF 50-100 ng/ml 5 minutes, Figure 13A.
Another assay relates to A549 cells. Briefly: XTT cell viability assay, A549 cells. To be noted: A549 (mutated RAS), 48 hours, Figure 15. A general note: Tetrazolium dyes change colour on reduction, which living cells bring about.
A further assay deals with HT-29 cells. Put plainly: XTT cell viability assay, HT-29 cells. The note with it: HT-29 (B-RAF V600E), different doses of Dabrafenib, with or without LDN192960 10 µM, 48 hours, Figure 16.
For a further assay, the system named is DYRK2. Put plainly: Western-blot of DYRK2 protein levels in HEK-293T cells. To be noted: for DYRK2 levels: HEK-293T transfected with Flag-DYRK2, inhibitor 10 µM for 24 hours, Figure 13B.
A further assay relates to HCT116 cells. Put plainly: XTT cell viability assay, HCT116 cells. The note with it: HCT116 (mutated RAS), 48 hours, Figure 14.

For the compound `CC(C)(C)c1nc(-c2cccc(NS(=O)(=O)c3c(F)cccc3F)c2F)c(-c2ccnc(N)n2)s1` [Dabrafenib], the pathway activation result with pERK1/2-T202/T204 is reported as “reduction in pathway activation”. Besides, the “cell viability (tumour survival)” value with A549 cells (low doses of Dabrafenib) and in the assay on HCT116 cells (low doses of Dabrafenib) was “increase in tumour survival compared to the control” each time. Besides, the values for the cell viability result in the assay on A549 cells (very high doses of Dabrafenib), in the assay with HT-29 cells and in the assay with HCT116 cells (very high doses of Dabrafenib) were “slightly reducing cell viability”, “dose-dependent decrease in viability” and “slightly reducing cell viability”, respectively. In addition, in the assay with DYRK2 (HEK-293T transfected with Flag-DYRK2, Dabrafenib 10 µM 24 hours, Figure 13A), the DYRK2 stabilisation entry was “DYRK2 stabilisation was observed”. Further, the DYRK2 levels result in the assay on DYRK2 is recorded as “increasing DYRK2 levels”.
On to `N#CC(=C(/N)Sc1ccccc1N)/C(C#N)=C(\N)Sc1ccccc1N` [U0126], for which the DYRK2 levels result in the assay on DYRK2 is “increasing DYRK2 levels”.
